The results in this text go back to patent US20150038473A1, “STABLE POVIDONE-IODINE COMPOSITIONS WITH STEROIDS OR NON-STEROIDAL ANTI-INFLAMMATORIES” (FORESIGHT BIOTHERAPEUTICS, INC., priority 2011, published 2015).

The data set is described as follows: Stability testing of steroids and NSAIDS combined with 0.6% povidone iodine at room temperature. To be noted: 0.6% PVP-I, room temperature, week 4. The protocol:
Steroids and NSAIDS were mixed with PVP-I at the concentration of 0.6% w/w on Day 1. The resultant mixtures will be split to glass vials and stored at room temperature. fluorometholone alcohol, medrysone, prednisone sodium phosphate, rimexolone, hydrocortisone, hydrocortisone acetate, lodoxamide tromethamine, nepafenac, bromfenac, and ketorolac. Testing timepoints included day 0 (Time Zero), and week 4. Tests were conducted at room temperature. The testing samples were analyzed using liquid chromatography and tandem mass spectrometry (LC/MS/MS) methods at Day 0, and Week 4. The steroids and NSAIDS standards were also analyzed and steroids and NSAIDS levels in testing samples were determined.
For Tables VIII-XIII, a: Nominal concentration in HPLC samples; b: Calculated concentration in HPLC samples; c: Dilution factor; d: Calculated concentration in stability samples; e: Spiked 50 μL of H2O and stored at room temperature without PVP-I.

On to `N#Cc1cc(NC(=O)C(=O)O)c(Cl)c(NC(=O)C(=O)O)c1.NC(CO)(CO)CO.NC(CO)(CO)CO` [lodoxamide, lodoxamide tromethamine], for which the “stability in PVP-I (result in words)” value is “appeared to be stable”.
